As usually defined, the Ki is the dissociation constant of the complex between target and ligand, obtained from inhibition or displacement. A high value points to a looser hold on the target.

The source of these data is patent US9676720B2, “Substituted biaryl compound” (UBE INDUSTRIES, LTD., priority 2013, dated 2017).

SMILES strings stand for the structures.

For the first assay, the target named is human EP2 receptor (Homo sapiens (Human), UniProt P43116). Kind of assay: Measurement of EP2 receptor binding action. As to conditions: membrane fraction of HEK293 cells expressing human EP2 receptor; [3H]prostaglandin E2 10 nM. The procedure: The membrane fraction was recovered on glass fiber filter paper (GF/B, manufactured by Whatman) using a cell harvester (M30R, manufactured by Brandel), and after washing with a buffer solution (10 mM MES-KOH (pH 6.0), 10 mM MgCl2), radioactivity was measured with a liquid scintillation analyzer (2000CA, manufactured by Packard). […] Ki=IC50/(1+([^3H]prostaglandin E2 concentration/Kd))
Chain of human EP2 receptor (P43116 whole entry): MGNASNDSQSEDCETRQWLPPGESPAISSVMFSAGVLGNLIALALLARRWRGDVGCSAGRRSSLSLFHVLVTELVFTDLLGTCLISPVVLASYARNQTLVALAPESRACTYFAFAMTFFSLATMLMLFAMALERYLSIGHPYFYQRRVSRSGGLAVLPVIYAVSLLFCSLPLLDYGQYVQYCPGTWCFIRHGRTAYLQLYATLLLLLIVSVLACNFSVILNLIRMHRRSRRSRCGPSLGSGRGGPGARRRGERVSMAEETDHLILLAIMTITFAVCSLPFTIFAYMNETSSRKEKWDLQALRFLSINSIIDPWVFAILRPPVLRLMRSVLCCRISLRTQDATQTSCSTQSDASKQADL
Note that the dissociation constant (Kd value) was calculated by Scatchard analysis.
In turn, `CCC=Cc1cccc(-c2ccc(CN(Cc3cccc(NCC(=O)O)n3)S(=O)(=O)c3ccccn3)cc2)c1` [Comparative example 9, (6-{[3′-(1-Butenyl)biphenyl-4-ylmethyl](pyridin-2-ylsulfonyl)aminomethyl}-pyridin-2-ylamino)acetic acid] registered a Ki of 1.5 nM.

A further assay concerns Pulmonary fibroblasts derived from a human fetus (IMR90). Kind of assay: Test for inhibition of pulmonary fibroblast proliferation (BrdU incorporation). As to conditions: Homo sapiens, IMR-90, read-out: IC50 value (nM) of inhibition effect of pulmonary fibroblast proliferation. It is filed as cell-based. As for the experimental part:
Measurement of inhibition effect of pulmonary fibroblast proliferation was performed by modifying the method of Huang et al. (American Journal of Respiratory Cell and Molecular Biology, 39, 482 (2008)). Pulmonary fibroblasts derived from a human fetus (IMR90, purchased from American Type Culture Collection) were cultured in DMEM medium containing 10% FBS and seeded at 1×10^4 cells/well of a 96-well plate. After culturing for approximately 8 hours in a carbon dioxide incubator, the medium was replaced with FBS-free DMEM medium and the culturing was performed for one night. On the following day, the medium was replaced with a new FBS-free DMEM medium, and then a test compound dissolved in dimethyl sulfoxide (final concentration: 0.1%) and FGF (final concentration: 10 ng/mL, manufactured by Wako Pure Chemical Industries, Ltd.) were added thereto and allowed to stand undisturbed in a carbon dioxide incubator. After 22 hours, a BrdU labeling solution (manufactured by Roche) was added and culturing was performed for another 2 hours. After the completion of the culturing, amount of BrdU incorporation was measured using Cell Proliferation ELISA BrdU (colorimetric) (manufactured by Roche). The concentration of the test compound required to inhibit BrdU incorporation to 50% (IC50 value) was calculated by non-linear regression of the test compound concentration and the amount of BrdU incorporation using EXSAS (Ver. 8.0.0, manufactured by Arm Systex).
In the case of `O=C(O)CNc1cccc(CN(Cc2ccc(-c3ccccc3)cc2)S(=O)(=O)c2ccccn2)n1` [Comparative example 1], the IC50 was > 1 nM.

As to `O=C(O)CNc1cccc(CN(Cc2ccc(-c3ccccc3)cc2)S(=O)(=O)c2cccnc2)n1` [Comparative example 2, {6-[(Biphenyl-4-ylmethyl)(pyridin-3-ylsulfonyl)aminomethyl]pyridin-2-ylamino}acetic acid], the IC50 is 0.97 nM. On the same count and under the same terms, the same measure for `O=C(O)CNc1cccc(CN(Cc2ccc(-c3ccc(F)cc3)cc2)S(=O)(=O)c2cccnc2)n1` [Comparative example 3, {6-[(4′-Fluorobiphenyl-4-ylmethyl)(pyridin-3-ylsulfonyl)aminomethyl]-pyridin-2-ylamino}acetic acid]: > 1 nM; for `O=C(O)CNc1cccc(CN(Cc2ccc(-c3ccc(Cl)cc3)cc2)S(=O)(=O)c2cccnc2)n1` [Comparative example 4, {6-[(4′-Chlorobiphenyl-4-ylmethyl)(pyridin-3-ylsulfonyl)aminomethyl]-pyridin-2-ylamino}acetic acid]: > 1 nM. Same read-out and setting: the same measure for `CC#Cc1ccccc1-c1ccc(CN(Cc2cccc(NCC(=O)O)n2)S(=O)(=O)c2ccccn2)cc1` [Comparative example 16]: 0.5 nM; for `CC#Cc1ccc(-c2ccc(CN(Cc3cccc(NCC(=O)O)n3)S(=O)(=O)c3ccccn3)cc2)cc1` [Comparative example 17]: > 1 nM; for `CC#Cc1cccc(-c2ccc(CN(Cc3cccc(NCC(=O)O)n3)S(=O)(=O)c3ccccn3)cc2)c1` [Example 4, (6-{[3′-(1-Propynyl)biphenyl-4-ylmethyl](pyridin-2-ylsulfonyl)aminomethyl}-pyridin-2-ylamino)acetic acid]: 0.016 nM. The same measure, in the same setting: the same measure for `CC#Cc1cccc(-c2ccc(CN(Cc3cccc(NCC(=O)O)n3)S(=O)(=O)c3cccnc3)cc2)c1` [Example 6, (6-{[3′-(1-Propynyl)biphenyl-4-ylmethyl](pyridin-3-ylsulfonyl)aminomethyl}-pyridin-2-ylamino)acetic acid]: 0.045 nM; for `CCOc1cccc(-c2ccc(CN(Cc3cccc(NCC(=O)O)n3)S(=O)(=O)c3cccnc3)cc2)c1` [Example 9, {6-[(3′-Ethoxybiphenyl-4-ylmethyl)(pyridin-3-ylsulfonyl)aminomethyl]-pyridin-2-ylamino}acetic acid]: 0.051 nM. For the molecule `CCOc1cccc(-c2ccc(CN(Cc3cccc(NCC(=O)O)n3)S(=O)(=O)c3ccccc3)cc2)c1` [Example 10, {6-[(Benzenesulfonyl)(3′-ethoxybiphenyl-4-ylmethyl)aminomethyl]pyridin-2-ylamino}acetic acid], the IC50 is 0.035 nM. The same measure, in the same setting: the same measure for `CC#Cc1cccc(-c2ccc(CN(Cc3cccc(NCC(=O)O)n3)S(=O)(=O)c3cccs3)cc2)c1` [Example 14, (6-{[3′-(1-Propynyl)biphenyl-4-ylmethyl](thiophen-2-ylsulfonyl)-aminomethyl}pyridin-2-ylamino)acetic acid]: 0.011 nM. Same read-out and setting: the same measure for `CC#Cc1cccc(-c2ccc(CN(Cc3cccc(NCC(=O)O)n3)S(=O)(=O)c3ccccc3)cc2)c1` [Example 16, (6-{(Benzenesulfonyl)[3′-(1-propynyl)biphenyl-4-ylmethyl]aminomethyl}-pyridin-2-ylamino)acetic acid]: 0.0088 nM; for `CC#Cc1cccc(-c2ccc(CN(Cc3cccc(NCC(=O)O)n3)S(=O)(=O)c3cccc(F)c3)cc2)c1` [Example 19, (6-{(3-Fluorobenzenesulfonyl)[3′-(1-propynyl)biphenyl-4-ylmethyl]-aminomethyl}pyridin-2-ylamino)acetic acid]: 0.026 nM.

Staying with this assay, now noted: Homo sapiens, IMR-90; IMR90; FGF 10 ng/mL; BrdU incorporation; read-out: IC50 value (nM) of inhibition effect of pulmonary fibroblast proliferation.
As to `Cc1cnc(-c2ccc(CN(Cc3cccc(NCC(=O)O)n3)S(=O)(=O)c3ccccn3)cc2)s1` [Comparative example 5], the IC50 was > 1 nM. The same measure, in the same setting: the same measure for `Cc1cccc(-c2ccc(CN(Cc3cccc(NCC(=O)O)n3)S(=O)(=O)c3ccccn3)cc2)c1` [Comparative example 6]: 0.58 nM; for `CCc1cccc(-c2ccc(CN(Cc3cccc(NCC(=O)O)n3)S(=O)(=O)c3ccccn3)cc2)c1` [Comparative example 7]: 0.88 nM. For the molecule `CCCc1cccc(-c2ccc(CN(Cc3cccc(NCC(=O)O)n3)S(=O)(=O)c3ccccn3)cc2)c1` [Comparative example 8], the IC50 is 0.34 nM. Still for that read-out and setting: the same measure for `CCC=Cc1cccc(-c2ccc(CN(Cc3cccc(NCC(=O)O)n3)S(=O)(=O)c3ccccn3)cc2)c1` [Comparative example 9, (6-{[3′-(1-Butenyl)biphenyl-4-ylmethyl](pyridin-2-ylsulfonyl)aminomethyl}-pyridin-2-ylamino)acetic acid]: 0.75 nM; for `C=CCc1cccc(-c2ccc(CN(Cc3cccc(NCC(=O)O)n3)S(=O)(=O)c3ccccn3)cc2)c1` [Comparative example 10]: 0.56 nM; for `COc1cccc(-c2ccc(CN(Cc3cccc(NCC(=O)O)n3)S(=O)(=O)c3ccccn3)cc2)c1` [Comparative example 11]: 0.2 nM. For `CCOc1ccccc1-c1ccc(CN(Cc2cccc(NCC(=O)O)n2)S(=O)(=O)c2ccccn2)cc1` [Comparative example 13], the IC50 is > 1 nM. As to `CCOc1ccc(-c2ccc(CN(Cc3cccc(NCC(=O)O)n3)S(=O)(=O)c3ccccn3)cc2)cc1` [Comparative example 14], the IC50 was > 1 nM. With `CC=Cc1cccc(-c2ccc(CN(Cc3cccc(NCC(=O)O)n3)S(=O)(=O)c3ccccn3)cc2)c1` [Example 2], the IC50 turned out to be 0.035 nM. On the same count and under the same terms, the same measure for `CCOc1cccc(-c2ccc(CN(Cc3cccc(NCC(=O)O)n3)S(=O)(=O)c3ccccn3)cc2)c1` [Example 7, {6-[(3′-Ethoxybiphenyl-4-ylmethyl)(pyridin-2-ylsulfonyl)aminomethyl]-pyridin-2-ylamino}acetic acid]: 0.028 nM.

Regarding `CCOc1cccc(-c2ccc(CN(Cc3cccc(NCC(=O)O)n3)S(=O)(=O)c3cccs3)cc2)c1` [Example 11, {6-[(3′-Ethoxybiphenyl-4-ylmethyl)(thiophen-2-ylsulfonyl)aminomethyl]-pyridin-2-ylamino}acetic acid], the IC50 amounted to 0.049 nM.

As for `CCOc1cccc(-c2ccc(CN(Cc3cccc(NCC(=O)O)n3)S(=O)(=O)c3ccccn3)cc2)n1` [Example 12, (6-{[4-(6-Ethoxypyridin-2-yl)benzyl](pyridin-2-ylsulfonyl)aminomethyl}-pyridin-2-ylamino)acetic acid], the IC50 worked out at 0.037 nM.

A further assay concerns mouse pulmonary fibrosis models (bleomycin). Description: Test for inhibition of pulmonary fibrosis in mouse (bleomycin model, lung hydroxyproline). The assay is classed as in vivo, ICR mice. As to conditions: dose of 0.3 mg/kg, intratracheal administration twice per day for 28 days. As for the experimental part: Test for inhibition effect of pulmonary fibrosis using mouse was performed by partially modifying the method of Oku et al. (European Journal of Pharmacology, 590, 400 (2008)). […] These models were used as a bleomycin control group and a test compound administration group. Similarly, a normal group was subjected to administration of saline for 5 days. For the test, each group used 7 or more mice. The test compound solution for the administration was prepared by dissolving the test substance to the equimolar amount of 0.1 mol/L aqueous sodium hydroxide solution, and then neutralizing by adding a phosphate buffer solution (PBS) which was a medium. The test compound was administered via intratracheal administration twice per day from the start date of the test, for 28 days. For the normal group and bleomycin control group, the medium was administered similarly via intratracheal administration. For the intratracheal administration, the MicroSprayerTM (IA-1C-M, manufactured by PennCentury) was used. On the day following the completion of 28-day administration, the mice were left bleeding to die while subjecting the mice for inhalation anesthesia, to collect the lungs. […] The amount of hydroxyproline (HYP) in the lung hydrolysis solution, which is an indicator of collagen accumulation, was measured by the method of Woessner et al. (Archives of Biochemistry and Biophysics, 93, 440 (1961)). […] After cooling, 200 μL of the colored solution was placed on a microplate, and the absorbance (measurement wavelength: 570 nm, reference wavelength: 620 nm) was measured using a plate reader (SPECTRA FLOUR, manufactured by Tecan). A HYP solution having a specified concentration was reacted in the same manner to create a calibration curve, and the HYP concentration of each sample was calculated. From the calculated HYP concentration, the amount of HYP in the lung per 100 g of body weight was calculated. The inhibiting rate of HYP formation in the lung upon administration of the test compound was calculated using the formula described below. […]
On to `CC#Cc1cccc(-c2ccc(CN(Cc3cccc(NCC(=O)O)n3)S(=O)(=O)c3ccccn3)cc2)c1` [Example 4, (6-{[3′-(1-Propynyl)biphenyl-4-ylmethyl](pyridin-2-ylsulfonyl)aminomethyl}-pyridin-2-ylamino)acetic acid], for which the “Inhibiting rate of HYP formation in the lung” value (“Inhibiting rate” for short) is ≥ 70%.

For `CCOc1cccc(-c2ccc(CN(Cc3cccc(NCC(=O)O)n3)S(=O)(=O)c3ccccc3)cc2)c1` [Example 10, {6-[(Benzenesulfonyl)(3′-ethoxybiphenyl-4-ylmethyl)aminomethyl]pyridin-2-ylamino}acetic acid], the “Inhibiting rate” value was ≥ 70%. Regarding `CC#Cc1cccc(-c2ccc(CN(Cc3cccc(NCC(=O)O)n3)S(=O)(=O)c3ccccc3)cc2)c1` [Example 16, (6-{(Benzenesulfonyl)[3′-(1-propynyl)biphenyl-4-ylmethyl]aminomethyl}-pyridin-2-ylamino)acetic acid], the “Inhibiting rate” value was ≥ 70%.
